Where a SMILES comes first, the peptide text is derived from it.
Experiments:
[1] = tested on: Escherichia coli ATCC 25922; settings: ATCC 25922
In short: (§1)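 Broth microdilution; cation-adjusted MHII; inoculum ~5×10^5 CFU/mL from 0.5 McFarland saline suspension; peptide two-fold serial dilutions; polysorbate 80 0.002% final; peptide stock 1 mg/mL in water.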

[2] = tested on: Escherichia coli MCR-1 Af 45; settings: Mueller-Hinton broth II, no visible growth after 18-20 hours at 35° C.
In short: as §1

[3] = tested on: Klebsiella pneumoniae SSI3010; settings: SSI3010
In short: as §1

[4] = tested on: human red blood cells (hRBC); assay type: cell-based; settings: red cells of human, 1 h, 0.2 g/L
In short: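 PBS-washed human erythrocytes (20% v/v) were incubated with compounds at 200 μg/mL for 1 h at 37° C with shaking. Supernatant OD540 was read after 8-fold dilution; hemolysis % = OD540 peptide / OD540 of the 100% lysis control (2.5% Triton X-100 in H2O) ×100, with PBS as 0%.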

Compound | Escherichia coli ATCC 25922 MIC [1] [µg/mL] | Escherichia coli MCR-1 Af 45 MIC [2] [µg/mL] | Klebsiella pneumoniae SSI3010 MIC [3] [µg/mL] | Hemolysis at 0.2 g/L [4] [%]
CC[C@H](C)[C@H](NC(=O)[C@@H](NC(=O)[C@@H]1C[C@@H](N)CN1C(=O)[C@@H](N)C(C)C)[C@@H](C)CC)C(=O)N[C@@H](Cc1ccc(O)cc1)C(=O)N[C@@H]1C(=O)N[C@@H](CC(N)=O)C(=O)N[C@@H](CCCNC(=N)N)C(=O)N[C@@H](CCN)C(=O)N[C@@H]([C@@H](C)O)C(=O)N[C@H](CCN)C(=O)N[C@@H](CCCCN)C(=O)N[C@H](C(=O)N[C@@H](CCN)C(=O)N[C@@H](CO)C(=O)N[C@@H](Cc2ccc(O)cc2)C(=O)O)CSSC1(C)C [Example 100, Val-Pro((4R)NH2)-Ile-Ile-Tyr-Pen-Asn-Arg-Dab-Thr-^DDab-Lys-Cys-Dab-Ser-Tyr] (HELM PEPTIDE1{V.[N[C@@H]1C[C@@H](C(=O)[*:2])N([*:1])C1].I.I.Y.[Pen].N.R.[Dab].T.[NCC[C@@H](N[*:1])C(=O)[*:2]].K.C.[Dab].S.Y}$PEPTIDE1,PEPTIDE1,6:R3-13:R3$$$V2.0) | 0.25 | 0.0625 | 0.25 | <1
CC[C@H](C)[C@H](NC(=O)[C@@H](NC(=O)[C@@H]1C[C@@H](O)CN1C(=O)[C@@H](N)C(C)C)[C@@H](C)CC)C(=O)N[C@@H](Cc1ccc(O)cc1)C(=O)N[C@@H]1C(=O)N[C@@H](CC(N)=O)C(=O)N[C@@H](CCCNC(=N)N)C(=O)N[C@@H](CCN)C(=O)N[C@@H]([C@@H](C)O)C(=O)N[C@H](CCN)C(=O)N[C@@H](CO)C(=O)N[C@H](C(=O)N[C@@H](CCN)C(=O)N[C@@H](CCCNC(=N)N)C(=O)N[C@@H](Cc2ccc(O)cc2)C(=O)O)CSSC1(C)C [Example 101, Val-Hyp-Ile-Ile-Tyr-Pen-Asn-Arg-Dab-Thr-^DDab-Cys-Dab-Arg-Tyr] | 0.125 | 0.125 | 0.25 | <1
CC[C@H](C)[C@H](NC(=O)[C@@H]1C[C@@H](N)CN1C(=O)[C@@H](N)C(C)C)C(=O)N[C@H](C(=O)N[C@@H](Cc1ccc(O)cc1)C(=O)N[C@@H]1C(=O)N[C@@H](CC(N)=O)C(=O)N[C@@H](CCCNC(=N)N)C(=O)N[C@@H](CCN)C(=O)N[C@@H]([C@@H](C)O)C(=O)N[C@H](CCN)C(=O)N[C@@H](CCCNC(N)=O)C(=O)N[C@H](C(=O)N[C@@H](CCN)C(=O)N[C@@H](CO)C(=O)N[C@@H](Cc2ccc(O)cc2)C(=O)O)CSSC1(C)C)[C@@H](C)O [Example 102, Val-Pro((4R)NH2)-Ile-Thr-Tyr-Pen-Asn-Arg-Dab-Thr-^DDab-Cit-Cys-Dab-Ser-Tyr] (HELM PEPTIDE1{V.[N[C@@H]1C[C@@H](C(=O)[*:2])N([*:1])C1].I.T.Y.[Pen].N.R.[Dab].T.[NCC[C@@H](N[*:1])C(=O)[*:2]].[Cit].C.[Dab].S.Y}$PEPTIDE1,PEPTIDE1,6:R3-13:R3$$$V2.0) | 0.25 | 0.125 | 0.25 | <1
CC[C@H](C)[C@H](NC(=O)[C@@H]1C[C@@H](N)CN1C(=O)[C@@H](N)C(C)C)C(=O)N[C@H](C(=O)N[C@@H](Cc1ccc(O)cc1)C(=O)N[C@@H]1C(=O)N[C@@H](CC(N)=O)C(=O)N[C@@H](CCCNC(=N)N)C(=O)N[C@@H](CCN)C(=O)N[C@@H]([C@@H](C)O)C(=O)N[C@H](CCN)C(=O)N[C@@H](CCCCN)C(=O)N[C@H](C(=O)N[C@@H](CO)C(=O)N[C@@H](CO)C(=O)N[C@@H](Cc2ccc(O)cc2)C(=O)O)CSSC1(C)C)[C@@H](C)O [Example 103, Val-Pro((4R)NH2)-Ile-Thr-Tyr-Pen-Asn-Arg-Dab-Thr-^DDab-Lys-Cys-Ser-Ser-Tyr] (HELM PEPTIDE1{V.[N[C@@H]1C[C@@H](C(=O)[*:2])N([*:1])C1].I.T.Y.[Pen].N.R.[Dab].T.[NCC[C@@H](N[*:1])C(=O)[*:2]].K.C.S.S.Y}$PEPTIDE1,PEPTIDE1,6:R3-13:R3$$$V2.0) | 0.5 | 0.125 | 0.5 | <1
CC[C@H](C)[C@@H]1NC(=O)[C@@H](NC(=O)[C@H](Cc2ccc(O)cc2)NC(=O)[C@@H](NC(=O)[C@@H](NC(=O)[C@@H]2C[C@@H](O)CN2C(=O)[C@@H](N)C(C)C)[C@@H](C)CC)[C@@H](C)O)C(C)(C)SSC[C@@H](C(=O)N[C@@H](CO)C(=O)N[C@@H](CCCNC(=N)N)C(=O)N[C@@H](Cc2ccc(O)cc2)C(=O)O)NC(=O)[C@H](CCCCN)NC(=O)[C@@H](CCN)NC(=O)[C@H]([C@@H](C)O)NC(=O)[C@H](CCN)NC(=O)[C@H](CCCNC(=N)N)NC1=O [Example 104, Val-Hyp-Ile-Thr-Tyr-Pen-Ile-Arg-Dab-Thr-^DDab-Lys-Cys-Ser-Arg-Tyr] (HELM PEPTIDE1{V.[Hyp].I.T.Y.[Pen].I.R.[Dab].T.[NCC[C@@H](N[*:1])C(=O)[*:2]].K.C.S.R.Y}$PEPTIDE1,PEPTIDE1,6:R3-13:R3$$$V2.0) | 0.125 | 0.125 | 0.25 | <1
CC[C@H](C)[C@H](NC(=O)[C@@H](NC(=O)[C@@H]1C[C@@H](O)CN1C(=O)[C@@H](N)C(C)C)[C@@H](C)CC)C(=O)N[C@@H](Cc1ccc(O)cc1)C(=O)N[C@@H]1C(=O)N[C@@H](CC(N)=O)C(=O)N[C@@H](CCCNC(=N)N)C(=O)N[C@@H](CCN)C(=O)N[C@@H]([C@@H](C)O)C(=O)N[C@H](CCN)C(=O)N[C@@H](CCCCN)C(=O)N[C@H](C(=O)N[C@@H](CCN)C(=O)N[C@@H](CO)C(=O)N[C@@H](Cc2ccc(O)cc2)C(=O)O)CSSC1(C)C [Example 105, Val-Hyp-Ile-Ile-Tyr-Pen-Asn-Arg-Dab-Thr-^DDab-Lys-Cys-Dab-Ser-Tyr] (HELM PEPTIDE1{V.[Hyp].I.I.Y.[Pen].N.R.[Dab].T.[NCC[C@@H](N[*:1])C(=O)[*:2]].K.C.[Dab].S.Y}$PEPTIDE1,PEPTIDE1,6:R3-13:R3$$$V2.0) | 0.25 | 0.125 | 0.5 | <1
CC[C@H](C)[C@H](NC(=O)[C@@H](NC(=O)[C@@H]1C[C@@H](N)CN1C(=O)[C@@H](N)C(C)C)[C@@H](C)CC)C(=O)N[C@@H](Cc1ccc(O)cc1)C(=O)N[C@@H]1C(=O)N[C@@H](CC(N)=O)C(=O)N[C@@H](CCCNC(=N)N)C(=O)N[C@@H](CCN)C(=O)N[C@@H]([C@@H](C)O)C(=O)N[C@H](CCN)C(=O)N[C@@H](CCCNC(N)=O)C(=O)N[C@H](C(=O)N[C@@H](CCN)C(=O)N[C@@H](CO)C(=O)N[C@@H](Cc2ccc(O)cc2)C(=O)O)CSSC1(C)C [Example 106, Val-Pro((4R)NH2)-Ile-Ile-Tyr-Pen-Asn-Arg-Dab-Thr-^DDab-Cit-Cys-Dab-Ser-Tyr] (HELM PEPTIDE1{V.[N[C@@H]1C[C@@H](C(=O)[*:2])N([*:1])C1].I.I.Y.[Pen].N.R.[Dab].T.[NCC[C@@H](N[*:1])C(=O)[*:2]].[Cit].C.[Dab].S.Y}$PEPTIDE1,PEPTIDE1,6:R3-13:R3$$$V2.0) | 0.25 | 0.25 | 0.25 | <1
